Experimental findings from patent publication US7601746B2 (Shionogi & Co., Ltd., priority 2003, dated 2009) are described below.

The term EC50 denotes the midpoint of the concentration-response curve.

The target of the first test is T1, human TPO receptor (hTPOR) (Homo sapiens, UniProt P40238).
T1 construct: expressed in transfected cells; host or cells: BaF-B03 (murine IL-3 dependent cell line)
T1 sequence (P40238 26-635): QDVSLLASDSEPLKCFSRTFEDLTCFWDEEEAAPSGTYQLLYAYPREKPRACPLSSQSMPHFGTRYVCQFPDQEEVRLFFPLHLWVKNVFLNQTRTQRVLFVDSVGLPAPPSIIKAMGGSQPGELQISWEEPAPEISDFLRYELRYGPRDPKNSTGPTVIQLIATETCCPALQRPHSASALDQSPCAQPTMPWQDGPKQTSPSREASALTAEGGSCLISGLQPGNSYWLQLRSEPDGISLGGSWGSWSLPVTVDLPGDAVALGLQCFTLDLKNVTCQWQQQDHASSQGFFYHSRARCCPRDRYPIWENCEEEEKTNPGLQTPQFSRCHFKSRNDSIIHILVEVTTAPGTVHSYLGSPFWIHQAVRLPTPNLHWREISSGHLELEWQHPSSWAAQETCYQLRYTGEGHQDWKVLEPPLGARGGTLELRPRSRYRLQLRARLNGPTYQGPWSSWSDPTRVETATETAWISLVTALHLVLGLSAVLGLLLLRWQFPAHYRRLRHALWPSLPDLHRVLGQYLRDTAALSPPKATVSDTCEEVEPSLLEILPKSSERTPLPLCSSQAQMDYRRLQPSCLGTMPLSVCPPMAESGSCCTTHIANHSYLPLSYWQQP
The test is described as follows: Thrombopoietic activity: proliferation of TPO dependent BaF/hTPOR cells (WST-1, absorbance at 450 nm). The class given is cell-based. The conditions noted are these: 20 h + 4 h WST-1, ED50 = half concentration of the concentration showing the maximum thrombopoietic activity, Table 1. The procedure, abridged:
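Proliferation read-out: WST-1 absorbance at 450 nm after 20 h compound exposure plus 4 h reagent, using IL-3-deprived BaF/hTPOR cells (5×10^4 per well) dependent on human TPO receptor signalling. ED50 defined as half the concentration producing maximal activity.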
With `CCCCCOCc1cccc(-c2csc(NC(=O)c3cc(F)c(/C=C(\C)C(=O)O)c(F)c3)n2)c1OC` [Compound B1884], the EC50 amounted to 16.9 nM. Same read-out and setting: the same measure for `CCC(CC)OCc1cccc(-c2csc(NC(=O)c3cc(F)c(/C=C(\C)C(=O)O)c(F)c3)n2)c1OC` [Compound B1890, (E)-3-(4-{4-[3-(1-ethylpropyloxymethyl)-2-methyloxyphenyl]thiazol-2-ylcarbamoyl}-2,6-difluorophenyl)-2-methylacrylic acid]: 18.1 nM.

For `CCC(CC)OCc1cccc(-c2csc(NC(=O)c3cc(Cl)c(/C=C(\C)C(=O)O)c(Cl)c3)n2)c1OC` [Compound B1892, (E)-3-(2,6-dichloro-4-{4-[3-(1-ethylpropyloxymethyl)-2-methyloxyphenyl]thiazol-2-ylcarbamoyl}phenyl)-2-methylacrylic acid], the EC50 was 11.6 nM. Still for that read-out and setting: to `COc1c(OCCC2CCCCC2)cccc1-c1csc(NC(=O)c2cc(F)c(/C=C(\C)C(=O)O)c(F)c2)n1` [Compound B1916] belongs 12.9 nM; to `COc1c(CCOCCCC(C)C)cccc1-c1csc(NC(=O)c2cc(F)c(/C=C(\C)C(=O)O)c(F)c2)n1` [Compound B1920, (E)-3-[2,6-difluoro-4-(4-{2-methyloxy-3-[2-(4-methylpentyloxy)ethyl]phenyl}thiazol-2-ylcarbamoyl)phenyl)-2-methylacrylic acid], 14.5 nM. Still for that read-out and setting: the same measure for `COc1c(CCOCCCC(C)C)cccc1-c1csc(NC(=O)c2cc(Cl)c(/C=C(\C)C(=O)O)c(Cl)c2)n1` [Compound B1922, (E)-3-[2,6-dichloro-4-(4-{2-methyloxy-3-[2-(4-methylpentyloxy)ethyl]phenyl}thiazol-2-ylcarbamoyl)phenyl)-2-methylacrylic acid]: 13.6 nM.

As for `CCCCCOCCc1cccc(-c2csc(NC(=O)c3cc(Cl)c(/C=C(\C)C(=O)O)c(Cl)c3)n2)c1OC` [Compound B1925, (E)-3-(2,6-dichloro-4-{4-[2-methyloxy-3-(2-pentyloxyethyl)phenyl]thiazol-2-ylcarbamoyl)phenyl)-2-methylacrylic acid], the 50% effective concentration (EC50) was determined as 18.4 nM.

Turning to `CCCCCCOCCc1cccc(-c2csc(NC(=O)c3cc(F)c(/C=C(\C)C(=O)O)c(F)c3)n2)c1OC` [Compound B1926, (E)-3-(2,6-difluoro-4-{4-[3-(2-hexyloxyethyl)-2-methyloxyphenyl]thiazol-2-ylcarbamoyl)phenyl)-2-methylacrylic acid], the EC50 was 15.6 nM. Same read-out and setting: the same measure for `CCCCCCOCCc1cccc(-c2csc(NC(=O)c3cc(F)c(/C=C(\OC)C(=O)O)c(F)c3)n2)c1OC` [Compound B1927, (Z)-3-(2,6-difluoro-4-{4-[3-(2-hexyloxyethyl)-2-methyloxyphenyl]thiazol-2-ylcarbamoyl)phenyl)-2-methyloxyacrylic acid]: 19.4 nM; for `CCCCCCOCCc1cccc(-c2csc(NC(=O)c3cc(Cl)c(/C=C(\C)C(=O)O)c(Cl)c3)n2)c1OC` [Compound B1928, (E)-3-(2,6-dichloro-4-{4-[3-(2-hexyloxyethyl)-2-methyloxyphenyl]thiazol-2-ylcarbamoyl)phenyl)-2-methylacrylic acid]: 12.6 nM; for `COc1c(COCC(C)(C)C)cccc1-c1csc(NC(=O)c2cc(F)c(/C=C(\C)C(=O)O)c(F)c2)n1` [Compound B1933, (E)-3-(4-{4-[3-(2,2-dimethylpropyloxymethyl)-2-methyloxyphenyl]thiazol-2-ylcarbamoyl}-2,6-difluorophenyl)-2-methylacrylic acid]: 7.88 nM.

In the case of `COc1c(COCCC(C)(C)C)cccc1-c1csc(NC(=O)c2cc(F)c(/C=C(\C)C(=O)O)c(F)c2)n1` [Compound B1934, (E)-3-(4-{4-[3-(3,3-dimethylbutyloxymethyl)-2-methyloxyphenyl]thiazol-2-ylcarbamoyl}-2,6-difluorophenyl)-2-methylacrylic acid], the EC50 was found to be 13 nM. On the same count and under the same terms, to `COc1c(COCCCC(C)C)cccc1-c1csc(NC(=O)c2cc(F)c(/C=C(\C)C(=O)O)c(F)c2)n1` [Compound B1938] belongs 12.7 nM; to `COc1c(COCCCC(C)C)cccc1-c1csc(NC(=O)c2cc(Cl)c(/C=C(\C)C(=O)O)c(Cl)c2)n1` [Compound B1940], 18.8 nM.

The same test, now with this note: 20 h + 4 h WST-1, ED50 = half concentration of the concentration showing the maximum thrombopoietic activity, Table 2.
For the molecule `COc1c(CCCOCC(C)C)cccc1-c1csc(NC(=O)c2cc(Cl)c(/C=C(\C)C(=O)O)c(Cl)c2)n1` [Compound B1878, (E)-3-(2,6-dichloro-4-{4-[3-(3-isobuyloxypropyl)-2-methyloxyphenyl]thiazol-2-ylcarbamoyl}phenyl)-2-methylacrylic acid], the EC50 is 21.2 nM. Same read-out and setting: the same measure for `CCCCCOCc1cccc(-c2csc(NC(=O)c3cc(Cl)c(/C=C(\C)C(=O)O)c(Cl)c3)n2)c1OC` [Compound B1886]: 22.1 nM; for `CO/C(=C\c1c(F)cc(C(=O)Nc2nc(-c3cccc(CCCOCC(C)(C)C)c3)c(OC)s2)cc1F)C(=O)O` [Compound B1900, (Z)-3-[4-(4-{3-[3-(2,2-dimethylpropyloxy)propyl]phenyl}-5-methyloxythiazol-2-ylcarbamoyl)-2,6-difluorophenyl]-2-methyloxyacrylic acid]: 23.2 nM; for `CO/C(=C\c1c(Cl)cc(C(=O)Nc2nc(-c3cccc(CCCOCC(C)(C)C)c3)c(OC)s2)cc1Cl)C(=O)O` [Compound B1901, (Z)-3-[2,6-dichloro-4-(4-{3-[3-(2,2-dimethylpropyloxy)propyl]phenyl}-5-methyloxythiazol-2-ylcarbamoyl)phenyl]-2-methyloxyacrylic acid]: 24.2 nM. Still for that read-out and setting: to `CO/C(=C\c1c(F)cc(C(=O)Nc2nc(-c3cccc(CCCOCC(C)(C)C)c3F)c(OC)s2)cc1F)C(=O)O` [Compound B1904, (Z)-3-[4-(4-{3-[3-(2,2-dimethylpropyloxy)propyl]-2-fluorophenyl}-5-methyloxythiazol-2-ylcarbamoyl)-2,6-difluorophenyl]-2-methyloxyacrylic acid] belongs 24.6 nM; to `CO/C(=C\c1c(Cl)cc(C(=O)Nc2nc(-c3cccc(CCCOCC(C)(C)C)c3F)c(OC)s2)cc1Cl)C(=O)O` [Compound B1905], 26.7 nM. The same measure, in the same setting: the same measure for `CO/C(=C\c1c(F)cc(C(=O)Nc2nc(-c3cccc(C(OC)C(C)(C)C)c3F)c(OC)s2)cc1F)C(=O)O` (centres unmarked) [Compound B1908, (Z)-3-(2,6-difluoro-4-{4-[2-fluoro-3-(1-methyloxy-2,2-dimethylpropyl)phenyl]-5-methyloxythiazol-2-ylcarbamoyl}phenyl)-2-methyloxyacrylic acid]: 26.3 nM. Regarding `CO/C(=C\c1c(Cl)cc(C(=O)Nc2nc(-c3cccc(C(OC)C(C)(C)C)c3F)c(OC)s2)cc1Cl)C(=O)O` (centres unmarked) [Compound B1909, (Z)-3-(2,6-dichloro-4-{4-[2-fluoro-3-(1-methyloxy-2,2-dimethylpropyl)phenyl]-5-methyloxythiazol-2-ylcarbamoyl}phenyl)-2-methyloxyacrylic acid], the 50% effective concentration (EC50) was found to be 25.9 nM. In the case of `COc1c(OCCC2CCCCC2)cccc1-c1csc(NC(=O)c2cc(Cl)c(/C=C(\C)C(=O)O)c(Cl)c2)n1` [Compound B1918], the EC50 came out at 21 nM.

For the molecule `CO/C(=C\c1c(Cl)cc(C(=O)Nc2nc(-c3cccc(OCCC4CCCCC4)c3OC)cs2)cc1Cl)C(=O)O` [Compound B1919], the EC50 was 27.9 nM. The same measure, in the same setting: the same measure for `CO/C(=C\c1c(Cl)cc(C(=O)Nc2nc(-c3cccc(CCOCCCC(C)C)c3OC)cs2)cc1Cl)C(=O)O` [Compound B1923, (Z)-3-[2,6-dichloro-4-(4-{2-methyloxy-3-[2-(4-methylpentyloxy)ethyl]phenyl}thiazol-2-ylcarbamoyl)phenyl)-2-methyloxyacrylic acid]: 20.2 nM; for `CCCCCOCCc1cccc(-c2csc(NC(=O)c3cc(F)c(/C=C(\C)C(=O)O)c(F)c3)n2)c1OC` [Compound B1924, (E)-3-(2,6-difluoro-4-{4-[2-methyloxy-3-(2-pentyloxyethyl)phenyl]thiazol-2-ylcarbamoyl)phenyl)-2-methylacrylic acid]: 20.6 nM; for `CCCCCCOCCc1cccc(-c2csc(NC(=O)c3cc(Cl)c(/C=C(\OC)C(=O)O)c(Cl)c3)n2)c1OC` [Compound B1929, (Z)-3-(2,6-dichloro-4-{4-[3-(2-hexyloxyethyl)-2-methyloxyphenyl]thiazol-2-ylcarbamoyl)phenyl)-2-methyloxyacrylic acid]: 25.8 nM. Still for that read-out and setting: to `CO/C(=C\c1c(F)cc(C(=O)Nc2nc(-c3cccc(COCCC(C)(C)C)c3OC)cs2)cc1F)C(=O)O` [Compound B1935, (Z)-3-(4-{4-[3-(3,3-dimethylbutyloxymethyl)-2-methyloxyphenyl]thiazol-2-ylcarbamoyl}-2,6-difluorophenyl)-2-methyloxyacrylic acid] belongs 25.4 nM.

Consider `CO/C(=C\c1c(Cl)cc(C(=O)Nc2nc(-c3cccc(COCCC(C)(C)C)c3OC)cs2)cc1Cl)C(=O)O` [Compound B1937, (Z)-3-(2,6-dichloro-4-{4-[3-(3,3-dimethylbutyloxymethyl)-2-methyloxyphenyl]thiazol-2-ylcarbamoyl}phenyl)-2-methyloxyacrylic acid], for which the EC50 was determined as 23.1 nM.
